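Values below derive from 48-hour exposures of cells grown in 96-well plates, with endpoints linearly interpolated between the two concentrations bracketing the appropriate inhibition level. GI50: concentration for 50% inhibition of growth. TGI: total growth inhibition.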
Experiments:
Test in all cases: growth of human tumour cells (NCI), 48 h
786-0 renal = tested on: 786-0 renal
A498 renal = tested on: A498 renal
A549 NSCLC = tested on: A549 NSCLC
ACHN renal = tested on: ACHN renal
BT-549 breast = tested on: BT-549 breast
CAKI-1 renal = tested on: CAKI-1 renal
CCRF-CEM leukemia = tested on: CCRF-CEM leukemia
COLO 205 colon = tested on: COLO 205 colon
DU-145 prostate = tested on: DU-145 prostate
EKVX NSCLC = tested on: EKVX NSCLC
HCC-2998 colon = tested on: HCC-2998 colon
HCT-116 colon = tested on: HCT-116 colon
HCT-15 colon = tested on: HCT-15 colon
HL-60(TB) leukemia = tested on: HL-60(TB) leukemia
HOP-62 NSCLC = tested on: HOP-62 NSCLC
HOP-92 NSCLC = tested on: HOP-92 NSCLC
HS 578T breast = tested on: HS 578T breast
HT29 colon = tested on: HT29 colon
IGROV1 ovarian = tested on: IGROV1 ovarian
K-562 leukemia = tested on: K-562 leukemia
KM12 colon = tested on: KM12 colon
LOX IMVI melanoma = tested on: LOX IMVI melanoma
M14 melanoma = tested on: M14 melanoma
MALME-3M melanoma = tested on: MALME-3M melanoma
MCF7 breast = tested on: MCF7 breast
MDA-MB-231 breast = tested on: MDA-MB-231 breast
MDA-MB-435 = tested on: MDA-MB-435
MOLT-4 leukemia = tested on: MOLT-4 leukemia
NCI-H226 lung = tested on: NCI-H226 lung
NCI-H23 lung = tested on: NCI-H23 lung
NCI-H460 lung = tested on: NCI-H460 lung
NCI-H522 lung = tested on: NCI-H522 lung
NCI/ADR-RES ovarian = tested on: NCI/ADR-RES ovarian
OVCAR-3 ovarian = tested on: OVCAR-3 ovarian
OVCAR-4 ovarian = tested on: OVCAR-4 ovarian
OVCAR-5 ovarian = tested on: OVCAR-5 ovarian
OVCAR-8 ovarian = tested on: OVCAR-8 ovarian
PC-3 prostate = tested on: PC-3 prostate
RPMI-8226 leukemia = tested on: RPMI-8226 leukemia
RXF 393 renal = tested on: RXF 393 renal
SF-268 CNS = tested on: SF-268 CNS
SF-295 CNS = tested on: SF-295 CNS
SF-539 CNS = tested on: SF-539 CNS
SK-MEL-2 melanoma = tested on: SK-MEL-2 melanoma
SK-MEL-28 melanoma = tested on: SK-MEL-28 melanoma
SK-MEL-5 melanoma = tested on: SK-MEL-5 melanoma
SK-OV-3 ovarian = tested on: SK-OV-3 ovarian
SN12C renal = tested on: SN12C renal
SNB-19 CNS = tested on: SNB-19 CNS
SNB-75 CNS = tested on: SNB-75 CNS
SR leukemia = tested on: SR leukemia
SW-620 colon = tested on: SW-620 colon
T-47D breast = tested on: T-47D breast
TK-10 renal = tested on: TK-10 renal
U251 CNS = tested on: U251 CNS
UACC-257 melanoma = tested on: UACC-257 melanoma
UACC-62 melanoma = tested on: UACC-62 melanoma
UO-31 renal = tested on: UO-31 renal

Which GI50 (786-0 renal) does the source give for `C=C(C)C(=O)O[C@H]1C[C@@]2(C)OC(=CC2=O)/C(C)=C\[C@H]2OC(=O)C(=C)[C@H]12` here?
Its GI50 is 660 nM.

What about the TGI (786-0 renal) of the same compound?
Its TGI is 1500 nM.

And the GI50 (A498 renal)?
Its GI50 is 7420 nM.

What about the TGI (A498 renal) of the same compound?
The TGI was 16500 nM.

And the GI50 (A549 NSCLC)?
The GI50 was 8470 nM.

And the TGI (A549 NSCLC)?
The TGI was over 33200 nM.

What about the GI50 (ACHN renal) of the same compound?
The GI50 was 625 nM.

What about the TGI (ACHN renal) of the same compound?
Its TGI is 1600 nM.

And the GI50 (BT-549 breast)?
Its GI50 is 927 nM.

And the TGI (BT-549 breast)?
Its TGI is 3030 nM.

What about the GI50 (CAKI-1 renal) of the same compound?
Its GI50 is 928 nM.

What about the TGI (CAKI-1 renal) of the same compound?
The TGI was 3120 nM.

And the GI50 (CCRF-CEM leukemia)?
The GI50 was 930 nM.

And the TGI (CCRF-CEM leukemia)?
Its TGI is 4250 nM.

And the GI50 (COLO 205 colon)?
The GI50 was 554 nM.

What about the TGI (COLO 205 colon) of the same compound?
Its TGI is 1260 nM.

And the GI50 (DU-145 prostate)?
Its GI50 is 968 nM.

And the TGI (DU-145 prostate)?
Its TGI is 4180 nM.

What about the GI50 (EKVX NSCLC) of the same compound?
The GI50 was 1310 nM.

And the TGI (EKVX NSCLC)?
Its TGI is 12200 nM.

What about the GI50 (HCC-2998 colon) of the same compound?
Its GI50 is 3300 nM.

What about the TGI (HCC-2998 colon) of the same compound?
Its TGI is 8150 nM.

And the GI50 (HCT-116 colon)?
The GI50 was 530 nM.

And the TGI (HCT-116 colon)?
Its TGI is 1210 nM.

What about the GI50 (HCT-15 colon) of the same compound?
The GI50 was 795 nM.

What about the TGI (HCT-15 colon) of the same compound?
Its TGI is 3290 nM.

And the GI50 (HL-60(TB) leukemia)?
Its GI50 is 913 nM.

What about the TGI (HL-60(TB) leukemia) of the same compound?
The TGI was 2450 nM.

And the GI50 (HOP-62 NSCLC)?
The GI50 was 6500 nM.

What about the TGI (HOP-62 NSCLC) of the same compound?
Its TGI is 24600 nM.

And the GI50 (HOP-92 NSCLC)?
Its GI50 is 1040 nM.

And the TGI (HOP-92 NSCLC)?
The TGI was 2990 nM.

And the GI50 (HS 578T breast)?
Its GI50 is 8210 nM.

What about the TGI (HS 578T breast) of the same compound?
Its TGI is over 33200 nM.

What about the GI50 (HT29 colon) of the same compound?
The GI50 was 957 nM.

And the TGI (HT29 colon)?
Its TGI is 3290 nM.

What about the GI50 (IGROV1 ovarian) of the same compound?
The GI50 was 1950 nM.

And the TGI (IGROV1 ovarian)?
The TGI was 6230 nM.

What about the GI50 (K-562 leukemia) of the same compound?
Its GI50 is 1150 nM.

And the TGI (K-562 leukemia)?
Its TGI is over 33200 nM.

And the GI50 (KM12 colon)?
Its GI50 is 3840 nM.

And the TGI (KM12 colon)?
The TGI was 8870 nM.

What about the GI50 (LOX IMVI melanoma) of the same compound?
The GI50 was 601 nM.

What about the TGI (LOX IMVI melanoma) of the same compound?
The TGI was 1340 nM.

What about the GI50 (M14 melanoma) of the same compound?
Its GI50 is 790 nM.

And the TGI (M14 melanoma)?
Its TGI is 2370 nM.

What about the GI50 (MALME-3M melanoma) of the same compound?
The GI50 was 666 nM.

And the TGI (MALME-3M melanoma)?
Its TGI is 1500 nM.

What about the GI50 (MCF7 breast) of the same compound?
The GI50 was 1000 nM.

And the TGI (MCF7 breast)?
The TGI was 5330 nM.

And the GI50 (MDA-MB-231 breast)?
Its GI50 is 1180 nM.

What about the TGI (MDA-MB-231 breast) of the same compound?
The TGI was 4640 nM.

And the GI50 (MDA-MB-435)?
The GI50 was 717 nM.

And the TGI (MDA-MB-435)?
The TGI was 1780 nM.

And the GI50 (MOLT-4 leukemia)?
The GI50 was 1010 nM.

And the TGI (MOLT-4 leukemia)?
Its TGI is 3520 nM.

And the GI50 (NCI-H226 lung)?
Its GI50 is 762 nM.

And the TGI (NCI-H226 lung)?
The TGI was 1990 nM.

And the GI50 (NCI-H23 lung)?
The GI50 was 1540 nM.

And the TGI (NCI-H23 lung)?
The TGI was 8320 nM.

And the GI50 (NCI-H460 lung)?
The GI50 was 5010 nM.

What about the TGI (NCI-H460 lung) of the same compound?
The TGI was over 33200 nM.

And the GI50 (NCI-H522 lung)?
Its GI50 is 461 nM.

And the TGI (NCI-H522 lung)?
Its TGI is 1040 nM.

And the GI50 (NCI/ADR-RES ovarian)?
The GI50 was 1110 nM.

What about the TGI (NCI/ADR-RES ovarian) of the same compound?
The TGI was over 33200 nM.

What about the GI50 (OVCAR-3 ovarian) of the same compound?
Its GI50 is 863 nM.

What about the TGI (OVCAR-3 ovarian) of the same compound?
The TGI was 2920 nM.

And the GI50 (OVCAR-4 ovarian)?
The GI50 was 1380 nM.

What about the TGI (OVCAR-4 ovarian) of the same compound?
The TGI was 6360 nM.

What about the GI50 (OVCAR-5 ovarian) of the same compound?
The GI50 was 1030 nM.

And the TGI (OVCAR-5 ovarian)?
The TGI was 3210 nM.

What about the GI50 (OVCAR-8 ovarian) of the same compound?
The GI50 was 1230 nM.

What about the TGI (OVCAR-8 ovarian) of the same compound?
Its TGI is over 33200 nM.

And the GI50 (PC-3 prostate)?
The GI50 was 2010 nM.

And the TGI (PC-3 prostate)?
The TGI was 7630 nM.

What about the GI50 (RPMI-8226 leukemia) of the same compound?
Its GI50 is 1060 nM.

What about the TGI (RPMI-8226 leukemia) of the same compound?
The TGI was 3400 nM.

And the GI50 (RXF 393 renal)?
Its GI50 is 601 nM.

What about the TGI (RXF 393 renal) of the same compound?
Its TGI is 1190 nM.

What about the GI50 (SF-268 CNS) of the same compound?
Its GI50 is 1990 nM.

What about the TGI (SF-268 CNS) of the same compound?
The TGI was over 16700 nM.

What about the GI50 (SF-295 CNS) of the same compound?
Its GI50 is 5820 nM.

And the TGI (SF-295 CNS)?
Its TGI is 18500 nM.

And the GI50 (SF-539 CNS)?
Its GI50 is 1070 nM.

And the TGI (SF-539 CNS)?
The TGI was 4780 nM.

What about the GI50 (SK-MEL-2 melanoma) of the same compound?
The GI50 was 1400 nM.

And the TGI (SK-MEL-2 melanoma)?
Its TGI is 6020 nM.

And the GI50 (SK-MEL-28 melanoma)?
Its GI50 is 788 nM.

What about the TGI (SK-MEL-28 melanoma) of the same compound?
The TGI was 1960 nM.

And the GI50 (SK-MEL-5 melanoma)?
The GI50 was 3670 nM.

And the TGI (SK-MEL-5 melanoma)?
The TGI was 13600 nM.

What about the GI50 (SK-OV-3 ovarian) of the same compound?
Its GI50 is 10700 nM.

And the TGI (SK-OV-3 ovarian)?
The TGI was over 33200 nM.

What about the GI50 (SN12C renal) of the same compound?
The GI50 was 1300 nM.

And the TGI (SN12C renal)?
Its TGI is 11000 nM.

What about the GI50 (SNB-19 CNS) of the same compound?
Its GI50 is 11100 nM.

What about the TGI (SNB-19 CNS) of the same compound?
The TGI was over 33200 nM.

What about the GI50 (SNB-75 CNS) of the same compound?
Its GI50 is 1150 nM.

What about the TGI (SNB-75 CNS) of the same compound?
The TGI was 16400 nM.

And the GI50 (SR leukemia)?
The GI50 was 734 nM.

And the TGI (SR leukemia)?
The TGI was 6300 nM.

And the GI50 (SW-620 colon)?
Its GI50 is 705 nM.

What about the TGI (SW-620 colon) of the same compound?
The TGI was 1720 nM.

And the GI50 (T-47D breast)?
Its GI50 is 661 nM.

And the TGI (T-47D breast)?
Its TGI is 3800 nM.

What about the GI50 (TK-10 renal) of the same compound?
The GI50 was 859 nM.

And the TGI (TK-10 renal)?
Its TGI is 2060 nM.

What about the GI50 (U251 CNS) of the same compound?
The GI50 was 1750 nM.

What about the TGI (U251 CNS) of the same compound?
The TGI was 7160 nM.

What about the GI50 (UACC-257 melanoma) of the same compound?
The GI50 was 872 nM.

What about the TGI (UACC-257 melanoma) of the same compound?
Its TGI is 2280 nM.

What about the GI50 (UACC-62 melanoma) of the same compound?
The GI50 was 675 nM.

What about the TGI (UACC-62 melanoma) of the same compound?
Its TGI is 1800 nM.

And the GI50 (UO-31 renal)?
The GI50 was 560 nM.

And the TGI (UO-31 renal)?
Its TGI is 1240 nM.

From PubChem BioAssay (NCI)
